The source of these data is US20250380696A1, “METHOD FOR CONTROLLING UNDESIRED PLANTS AND PROMOTING GROWTH OF USEFUL PLANTS” (ISHIHARA SANGYO KAISHA, LTD., priority 2022, published 2025).

Each structure is given as a SMILES string.

For the test, the system named is Italian ryegrass (Lolium multiflorum). Briefly: (4) Herbicidal effect test, pot, spray at 2.5 to 3.0 leaf stage. The settings on record: 7th day after spraying. Format: in vivo. The source says:
[formula] • X: growth inhibition rate when treated with α (g/ha) of compound A, • Y: growth inhibition rate when treated with β (g/ha) of compound B, • E: growth inhibition rate expected when treated with α (g/ha) of compound A and β (g/ha) of compound B (expected value).
Upland soil was put in a 1/1,000,000 hectare pot, and seeds of Italian ryegrass (Lolium multiflorum) were sown. When the Italian ryegrass reached 2.5 to 3.0 leaf stage, a water-based suspension containing tiafenacil as the active ingredient, prepared by a conventional method for preparing a water-based suspension, and a wettable powder containing metribuzin as the active ingredient (tradename: SENCOR wettable powder, manufactured by Bayer Crop Science) were diluted with water (in an amount corresponding to 200 liter per hectare) containing 0.5 vol % of an agricultural spreader (tradename: Destiny HC, manufactured by Winfield Solutions, LLC.) and sprayed by a small spray gun (model: W-101-132G, manufactured by ANEST IWATA Corporation).
On the 7th day after spraying, the state of growth of the Italian ryegrass was visually observed, and the growth inhibition rate (%) was obtained in accordance with the evaluation standards described in the above (1) herbicidal effect test, and the results are shown in Table 4. Further, the expected value of the growth inhibition rate (%) was calculated in accordance with the Colby's formula described in the above (1) herbicidal effect test, and the results are also shown in Table 4.

Consider `COC(=O)CCNC(=O)C(C)Sc1cc(-n2c(=O)cc(C(F)(F)F)n(C)c2=O)c(F)cc1Cl` (centres unmarked) [tiafenacil], for which the “Growth inhibition rate (%) Measured value” (Dose 6.25 g/ha) is recorded as 30%.

Consider `CSc1nnc(C(C)(C)C)c(=O)n1N` [metribuzin], for which the inhibition at 9.38 g/ha (Lolium multiflorum, Dose 9.38 g/ha, read-out: Growth inhibition rate (%) Measured value) was determined as 0%. Also, the inhibition at 275 g/ha (Lolium multiflorum, Dose 275 g/ha, read-out: Growth inhibition rate (%) Measured value) worked out at 45%. The inhibition at 550 g/ha (Lolium multiflorum, Dose 550 g/ha, read-out: Growth inhibition rate (%) Measured value) is 57%. The inhibition at 1100 g/ha (Lolium multiflorum, Dose 1100 g/ha, read-out: Growth inhibition rate (%) Measured value) came out at 88%.
